No end group written: not given here.

The test system of series [1] is P. aeruginosa strain PA239. Briefly: Killing kinetics. In kind it is cell-based, Pseudomonas aeruginosa. As to conditions: PA239, at 2 μM and 4 μM. As to the method:
(§1) To test whether PAX follow this common mechanism, the experiment initially examined the bactericidal activity of the top selection, PAX E35, against the MDR P. aeruginosa strain PA239 (resistant to all 12 test antibiotics, including colistin, Table 6). Bactericidal properties were assessed using a medium called FMP (FBS, 15%; MHB2, 25%; PBS, 60%) that is more physiologically relevant than MHB2 with the inclusion of saline and fetal bovine serum, a known inhibitory condition for many AMPs [Di Y P et al., 2020; Deslouches B et al., 2005]. […] In addition, E35 killed 2 logs of the bacterial cells within the first minute of treatment at 2 μM and 4 μM, compared to the non-effective tobramycin (FIG. 6B). No bacterial cells survived E35 treatment after 5-10 minutes of incubation. […]
(§2) Antibacterial assays. […] The bacterial cells were kept in an incubator for 18 hours at 37° C., which is linked to a robotic system that feeds a plate reader every hour with one of 8×96-well plates. This set-up allows the collection of growth kinetic data at A 570 (absorbance at 570 nm) to examine growth inhibition in real time (BioTek Instruments, USA). […] MBC (minimum bactericidal concentration) was determined as the peptide concentration at which complete bacterial killing was observed [Rozek A et al., 2000]. […] Data were analyzed using GraphPad Prism software.

For series [2], the system named is P. aeruginosa strain PA239. Briefly: Bactericidal assay in FBS-containing medium (FMP). Format: cell-based, Pseudomonas aeruginosa. As to conditions: within the 3 h of incubation. As to the method: as §1, §2
The test system of series [3] is MDR strain PA239. The series is described as follows: Membrane permeabilization, PI incorporation by real-time video imaging. Format: cell-based, Pseudomonas aeruginosa. As to conditions: PA239 at high inoculum (5×10^8 CFU/mL); E35 at 8 μM. The source says:
(§3) Determination of membrane permeabilization. To examine whether the selected peptides kill their bacterial target mainly by membrane permeabilization, this study used PI incorporation by the MDR strain PA239 (5×10^8 CFU/mL) quantitated by flow cytometry (Novocyte, USA) or visualized by video imaging using the digital microscope EVOS M7000 (Thermo-Fisher, USA) in bright field or red fluorescence channel. In the flow cytometry experiments [Deslouches B et al., 2015], bacterial cells were either untreated or treated with different peptide E35 concentrations in MHB2 for 1 hour at 37° C. The bacteria-peptide mixture was washed with PBS using an Eppendorf centrifuge at top speed for 7 minutes and incubated with PI in the dark for 15 min at room temperature. Tobramycin was used as a negative control with a 3-hour long incubation. For video imaging, the broth medium was reduced to 20% in PBS (treated or untreated) to decrease the rate of cell division and PI incorporation assessed over time. Video images were recorded in real time using the 40× objective either in bright field or red fluorescence channel.

Another series has as its system human red blood cells. As to conditions: at 16 μM, published data; cited from earlier work.
Series [4] is described as follows: Mouse toxicity, maximum tolerated dose. In kind it is in vivo, CD-1 mice. As to the method: Mouse toxicity. For all animal experiments, the protocol #18071776 approved by the Institutional Animal Care and Use Committee (IACUC) of the University of Pittsburgh was used, which is consistent with the NIH guide for the care and use of laboratory animals. In a preliminary (pilot) experiment, female CD-1 mice (3 per group) weighing about 20 g were injected different doses of peptides up to 45 mpk via a lateral tail vein (IV) to determine an MTD (dose that results in no apparent morbidity or mortality). To confirm the MTD determined in the pilot study, CD-1 mice (7 per group) were randomized to receive a dose based on the preliminary MTD (IV) or PBS (100 μL). The animals were monitored for up to 7 days for morbidity and survival.

In series [5] the test system is MDR strain PA239. Briefly: Membrane permeabilization, PI incorporation by flow cytometry. As to conditions: PA239, 1% triton X-100. Format: cell-based, Pseudomonas aeruginosa.
Excerpt: as §3
For orientation: Flow cytometry measures light scatter and fluorescence of single cells or particles in a stream.

Turning to `NC[C@H]1O[C@H](O[C@H]2[C@H](O)[C@@H](O[C@H]3O[C@H](CO)[C@@H](O)[C@H](N)[C@H]3O)[C@H](N)C[C@@H]2N)[C@H](N)C[C@@H]1O` [tobramycin], the “bacterial cells killed within the first minute of treatment” value in series [1] was “non-effective”. Further, the bacterial killing entry in series [2] is given as “did not display any substantial bacterial killing”. Moreover, the “PI incorporation by real-time video imaging” value in the series on MDR strain PA239 [3] was “did not demonstrate any markedly detectable intracellular PI”. Regarding “Ac-LKRVWKRVFKLLKRYWRQLKKPVR-NH2 [SAAP-148]”, the “red blood cell (RBC) lysis” value in the series on human red blood cells is on record as “only moderate”. As to RRVWRWVRRVWRWVRR [E35], in series [4] (7 mice, systemically at 30 mpk), the morbidity and mortality result is “no apparent morbidity and mortality”. Besides, the “maximum tolerated dose, MTD” value in series [4] (CD-1 mice, tail vein (IV)) is 30 mpk. The compound triton X-100 displayed a PI incorporation with MDR strain PA239 [5] of 55%.
